Data from patent US6525059B1, “Substituted pyrazoles as p38 kinase inhibitors” (G. D. Searle & Company, priority 1998, dated 2003).

melting point	SMILES
183 to 185 °C	COc1ccc(CNc2nccc(-c3cn[nH]c3-c3ccc(F)cc3)n2)cc1 [Example A-305, 4-[3-(4-fluorophenyl)-1H-pyrazol-4-yl]-N-[(4-methoxyphenyl)methyl)-2-pyrimidinamine]
273 to 274 °C	Nc1nccc(-c2cn[nH]c2-c2ccc(F)cc2)n1 [Example A-306, 4-[3-(4-fluorophenyl)-1H-pyrazol-4-yl]-2-pyrimidinamine]
163 to 165 °C	CCOC(=O)Nc1nccc(-c2cn[nH]c2-c2ccc(F)cc2)n1 [Example A-308, Ethyl [4-[3-(4-fluorophenyl)-1H-pyrazol-4-yl]-2-pyrimidinyl]carbamate]
151.67 °C	Cc1cccc(-c2[nH]ncc2-c2ccncn2)c1 [Example A-309, 4-[3-(3-methylphenyl)-1H-pyrazol-4-yl]pyrimidine]
168.58 °C	Fc1cccc(-c2[nH]ncc2-c2ccncn2)c1 [Example A-311, 4-[3-(3-fluorophenyl)-1H-pyrazol-4-yl]pyrimidine]
191.47 °C	Fc1ccc(-c2[nH]ncc2-c2ccncn2)cc1 [Example A-312, 4-[3-(4-fluorophenyl)-1H-pyrazol-4-yl]pyrimidine]
264 to 265 °C	Clc1ccc(-c2[nH]nc(N3CCNCC3)c2-c2ccncc2)cc1 [Example A-328, 1-[5-(4-chlorophenyl)-4-(4-pyridinyl)-1H-pyrazol-3-yl]piperazine]
257.6 to 257.7 °C	O=C(C(=C1SCS1)c1ccncc1)c1ccc(I)cc1 [Example A-401]
> 300 °C (dec.)	CN1CCN(c2n[nH]c(-c3ccc(N(C)C)cc3)c2-c2ccncc2)CC1 [Example A-421, 1-[5-(4-dimethylaminophenyl)-4-(4-pyridinyl)-1H-pyrazol-3-yl]-4-methylpiperazine]

Continued, compound first:

SMILES	melting point
CCNc1cc(-c2c[nH]nc2-c2cccc(Cl)c2)ccn1 [Example A-222, 4-[3-(3-chlorophenyl)-1H-pyrazol-4-yl]-N-ethyl-2-pyridinamine]	186 to 187 °C
NC(=O)c1cc(-c2cn[nH]c2-c2ccc(F)cc2)ccn1 [Example A-223, 4-[3-(4-fluorophenyl)-1H-pyrazol-4-yl]-2-pyridinecarboxamide]	230 to 231 °C
COC(=O)c1cc(-c2c[nH]nc2-c2ccc(F)cc2)ccn1 [Example A-224, Methyl 4-[3-(4-fluorophenyl)-1H-pyrazol-4-yl]-2-pyridinecarboxylate]	239 to 241 °C
CNC(=O)c1cc(-c2cn[nH]c2-c2ccc(F)cc2)ccn1 [Example A-225, 4-[3-(4-fluorophenyl)-1H-pyrazol-4-yl]-N-methyl-2-pyridinecarboxamide]	88 to 89 °C
Fc1ccc(-c2n[nH]cc2-c2ccnc(Cl)n2)cc1 [Example A-299, 2-Chloro-4-[3-(4-fluorophenyl)-1H-pyrazol-4-yl]pyrimidine]	204 to 205 °C
NNc1nccc(-c2cn[nH]c2-c2ccc(F)cc2)n1 [Example A-300, 4-[3-(4-fluorophenyl)-1H-pyrazol-4-yl]-2(1H)-pyrimidinone hydrazone]	149 to 150 °C
CN(C)c1nccc(-c2cn[nH]c2-c2ccc(F)cc2)n1 [Example A-301, 4-[3-(4-fluorophenyl)-1H-pyrazol-4-yl]-N,N-dimethyl-2-pyrimidinamine]	155 to 156 °C
CNc1nccc(-c2c[nH]nc2-c2ccc(F)cc2)n1 [Example A-302, 4-[3-(4-fluorophenyl)-1H-pyrazol-4-yl]-N-methyl-2-pyrimidinamine]	217 to 218 °C
Fc1ccc(-c2n[nH]cc2-c2ccnc(NCc3ccccc3)n2)cc1 [Example A-303, 4-[3-(4-fluorophenyl)-1H-pyrazol-4-yl]-N-(phenylmethyl)-2-pyrimidinamine]	216 to 217 °C
Fc1ccc(-c2[nH]ncc2-c2ccnc(NC3CC3)n2)cc1 [Example A-304, N-cyclopropyl-4-[3-(4-fluorophenyl)-1H-pyrazol-4-yl]-2-pyrimidinamine]	203 to 204 °C
